US10226452B2, “Benzoxazolone derivatives as acid ceramidase inhibitors, and their use as medicaments” (FONDAZIONE ISTITUTO ITALIANO DI TECNOLOGIA, priority 2014, dated 2019)

Target: human (hAC) acid ceramidase (Homo sapiens (Human), UniProt Q13510)
Assay: fluorescent-based in vitro assay on human acid ceramidase
Assay type: biochemical
Details: hAC-enriched lysosomal lysate from HEK293 cells; fluorogenic probe 5 μM; pH 4.5
From the text: To evaluate the potency of the compounds towards acid ceramidase, a fluorescence-based in vitro assay previously described in literature (Bedia C et al., ChemBioChem, 2007, 8, 642-648) was implemented and optimized. This assay is based on a “fluorogenic probe” containing a coumarin group and a sphingoid base moiety (see figure below), which is not fluorescent in itself, but upon enzymatic cleavage by acid ceramidase followed by a chemical transformation liberates the fluorescent molecule umbelliferone (7-hydroxychromen-2-one). By quantifying the generation of umbelliferone using a fluorescence plate-reader, the level of enzymatic activity can be measured, whereby IC50 values of compounds that inhibit this activity can be generated.
Lysosomal lysate, enriched with acid ceramidase, was prepared from a cell line stably expressing human acid ceramidase. In the assay, the fluorogenic probe (or substrate) serves as a ceramide-analogue, which is recognized and hydrolyzed at the amide bond by acid ceramidase from the enriched lysate to yield the fatty acid and coumarinic aminodiol. By treating the solution with sodium periodate (NaIO4), the coumarinic aminodiol is subsequently oxidized into an aldehyde intermediate, which undergoes a β-elimination reaction to release the strongly fluorescent umbelliferone.
A lysosomal human acid ceramidase protein preparation was obtained from HEK293 cells stably expressing acid ceramidase suspended in 20 mM Tris HCl (pH 7.5) with 0.32 M sucrose. The cell solution was sonicated and centrifuged at 800×g for 15 min at 4° C. Supernatants were then centrifuged at 12,000×g for 30 min at 4° C. Pellets were re-suspended in PBS pH 7.4 and subjected to two freeze-thaw cycles at −80° C. The suspension was finally centrifuged at 105,000×g for 1 hour at 4° C. and protein concentration was measured in the supernatant with bicinchinonic-acid based protein assay. This human acid ceramidase-enriched preparation allowed us to further optimize the enzymatic assay and to use smaller amounts of lysate (2 μg/well) and substrate (5 μM).
The assay was performed in Optiplate 96-wells black plates, with each reaction well containing a mixture of 25 mM sodium acetate buffer pH 4.5 and a fixed amount of protein (2 μg) in a volume of 85 μL. After 30 mins of pre-incubation with test compounds (diluted 20× from DMSO stock solutions at different concentrations), the fluorogenic probe was added (diluted 20× from EtOH stock solution, final concentration 5 μM). After incubation for 3 hours at 37° C., the reactions were stopped with 50 μL of methanol and 100 μL of a 2.5 mg/mL NalO4 fresh solution in 100 mM Glycine/NaOH pH 10.6. The plate was incubated at 37° C. for 2 hours in the dark and fluorescence intensities were measured at excitation/emission wavelengths of 360/446 nm. Negative control samples consisted of the same incubation mixture in the absence of protein extracts. The IC50 values or percent of inhibition, at the indicated concentration, of selected compounds described in the invention are reported in Table 2.

human (hAC) acid ceramidase, sequence (Q13510 22-142): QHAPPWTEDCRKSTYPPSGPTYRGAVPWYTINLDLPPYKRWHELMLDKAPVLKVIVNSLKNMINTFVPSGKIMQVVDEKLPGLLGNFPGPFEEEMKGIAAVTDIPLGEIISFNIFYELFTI
human (hAC) acid ceramidase, sequence (Q13510 143-395): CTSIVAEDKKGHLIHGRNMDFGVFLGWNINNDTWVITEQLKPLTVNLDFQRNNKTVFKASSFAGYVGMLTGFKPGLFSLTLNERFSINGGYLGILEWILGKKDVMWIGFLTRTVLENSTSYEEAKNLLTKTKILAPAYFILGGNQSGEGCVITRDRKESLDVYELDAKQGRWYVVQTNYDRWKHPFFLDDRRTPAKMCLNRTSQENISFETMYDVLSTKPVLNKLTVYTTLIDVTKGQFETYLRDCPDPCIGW

IC50 [nM] | Compound
99 ± 58 | O=C(NCCCCc1cccs1)n1c(=O)oc2ccccc21 [Example 44, 2-Oxo-N-[4-(2-thienyl)butyl]-1,3-benzoxazole-3-carboxamide]
28 | Cc1ccc(CCCCNC(=O)n2c(=O)oc3ccccc32)cc1 [Example 47, 2-Oxo-N-[4-(p-tolyl)butyl]-1,3-benzoxazole-3-carboxamide]
50 ± 7 | CCCCCCCNC(=O)n1c(=O)oc2ccccc21 [Example 59, N-Heptyl-2-oxo-1,3-benzoxazole-3-carboxamide]
63 ± 22 | COc1ccc(CCCCNC(=O)n2c(=O)oc3ccccc32)cc1 [Example 45, N-[4-(4-Methoxyphenyl)butyl]-2-oxo-1,3-benzoxazole-3-carboxamide]
55 ± 6 | O=C(NCCCc1ccccc1)n1c(=O)oc2ccccc21 [Example 43, 2-Oxo-N-(3-phenylpropyl)-1,3-benzoxazole-3-carboxamide]
54 ± 12 | O=C(NCCCCCc1ccccc1)n1c(=O)oc2ccccc21 [Example 57, 2-Oxo-N-(5-phenylpentyl)-1,3-benzoxazole-3-carboxamide]
14 ± 4 | O=C(c1ccc(Cl)cc1)c1ccc2c(c1)oc(=O)n2C(=O)NCCCCc1ccccc1 [Example 38, 6-(4-Chlorobenzoyl)-2-oxo-N-(4-phenylbutyl)-1,3-benzoxazole-3-carboxamide]
57 | O=C(NCCCCc1ccc2ccccc2c1)n1c(=O)oc2ccccc21 [Example 52, N-[4-(2-Naphthyl)butyl]-2-oxo-1,3-benzoxazole-3-carboxamide]
135 ± 56 | CCC[C@H]1CC[C@H](CNC(=O)n2c(=O)oc3ccccc32)CC1 [Example 40, 2-Oxo-N-[(4-propylcyclohexyl)methyl]-1,3-benzoxazole-3-carboxamide]
19 ± 2 | CCCc1ccc(CNC(=O)n2c(=O)oc3ccccc32)cc1 [Example 41, 2-Oxo-N-[(4-propylphenyl)methyl]-1,3-benzoxazole-3-carboxamide]
1 ± 1 | O=C(NCCCCc1ccccc1)n1c(=O)oc2cccc(F)c21 [Example 56, 4-Fluoro-2-oxo-N-(4-phenylbutyl)-1,3-benzoxazole-3-carboxamide]
62 ± 44 | O=C(NCCCCC1CCCCC1)n1c(=O)oc2ccccc21 [Example 39, N-(4-Cyclohexylbutyl)-2-oxo-1,3-benzoxazole-3-carboxamide]
34 ± 14 | CCCCCCCCNC(=O)n1c(=O)oc2ccccc21 [Example 42, N-Octyl-2-oxo-1,3-benzoxazole-3-carboxamide]
99 ± 58 | O=C(NCCCCCCc1ccccc1)n1c(=O)oc2ccccc21 [Example 58, 2-Oxo-N-(6-phenylhexyl)-1,3-benzoxazole-3-carboxamide]
29 ± 1 | O=C(c1ccccc1)c1ccc2c(c1)oc(=O)n2C(=O)NCCCCc1ccccc1 [Example 37, 6-Benzoyl-2-oxo-N-(4-phenylbutyl)-1,3-benzoxazole-3-carboxamide]
75 | O=C(NCCCCc1ccc(F)cc1)n1c(=O)oc2ccccc21 [Example 46, N-[4-(4-Fluorophenyl)butyl]-2-oxo-1,3-benzoxazole-3-carboxamide]
16 ± 14 | CCC(=O)c1ccc2c(c1)oc(=O)n2C(=O)NCCCCc1ccccc1 [Example 36, 2-Oxo-N-(4-phenylbutyl)-6-propanoyl-1,3-benzoxazole-3-carboxamide]

The next lines start with the compound.

Compound | IC50 [nM]
COc1ccc(-c2ccc3c(c2)oc(=O)n3C(=O)NCCCCc2ccccc2)cc1 [Example 24, 6-(4-Methoxyphenyl)-2-oxo-N-(4-phenylbutyl)-1,3-benzoxazole-3-carboxamide] | 67 ± 5
O=C(NCCCCc1ccccc1)n1c(=O)oc2cccc(-c3ccccc3)c21 [Example 26, 2-Oxo-4-phenyl-N-(4-phenylbutyl)-1,3-benzoxazole-3-carboxamide] | 0.8 ± 0.1
O=C(NCCCCc1ccccc1)n1c(=O)oc2cc(F)ccc21 [Example 3, 6-Fluoro-2-oxo-N-(4-phenylbutyl)-1,3-benzoxazole-3-carboxamide] | 10 ± 7
Cc1ccc2c(c1)oc(=O)n2C(=O)NCCCCc1ccccc1 [Example 9, 6-Methyl-2-oxo-N-(4-phenylbutyl)-1,3-benzoxazole-3-carboxamide] | 66 ± 9
O=C(NCCCCc1ccccc1)n1c(=O)oc2ccc(-c3ccccc3)cc21 [Example 20, 2-Oxo-5-phenyl-N-(4-phenylbutyl)-1,3-benzoxazole-3-carboxamide] | 22
O=C(NCCCCc1ccccc1)n1c(=O)oc2ccc(C(F)(F)F)cc21 [Example 13, 2-Oxo-N-(4-phenylbutyl)-5-(trifluoromethyl)-1,3-benzoxazole-3-carboxamide] | 11 ± 5
O=C(NCCCCc1ccccc1)n1c(=O)oc2c(-c3ccccc3)cccc21 [Example 27, 2-Oxo-7-phenyl-N-(4-phenylbutyl)-1,3-benzoxazole-3-carboxamide] | 91 ± 10
Cc1ccc2oc(=O)n(C(=O)NCCCCc3ccccc3)c2c1 [Example 8, 5-Methyl-2-oxo-N-(4-phenylbutyl)-1,3-benzoxazole-3-carboxamide] | 117 ± 26
Cc1cccc2c1oc(=O)n2C(=O)NCCCCc1ccccc1 [Example 18, 7-Methyl-2-oxo-N-(4-phenylbutyl)-1,3-benzoxazole-3-carboxamide] | 23 ± 5
O=C(NCCCCc1ccccc1)n1c(=O)oc2ccc(F)cc21 [Example 2, 5-Fluoro-2-oxo-N-(4-phenylbutyl)-1,3-benzoxazole-3-carboxamide] | 56 ± 12
O=C(NCCCCc1ccccc1)n1c(=O)oc2ccc([N+](=O)[O-])cc21 [Example 11, 5-Nitro-2-oxo-N-(4-phenylbutyl)-1,3-benzoxazole-3-carboxamide] | 3 ± 2
O=C(NCCCCc1ccccc1)n1c(=O)oc2cc(-c3ccccc3)ccc21 [Example 23, 2-Oxo-6-phenyl-N-(4-phenylbutyl)-1,3-benzoxazole-3-carboxamide] | 84 ± 35
O=C(NCCCCc1ccccc1)n1c(=O)oc2cc([N+](=O)[O-])ccc21 [Example 12, 6-Nitro-2-oxo-N-(4-phenylbutyl)-1,3-benzoxazole-3-carboxamide] | 3 ± 1
O=C(NCCCCc1ccccc1)n1c(=O)oc2ccccc21 [Example 1, 2-Oxo-N-(4-phenylbutyl)-1,3-benzoxazole-3-carboxamide] | 64 ± 7
O=C(NCCCCc1ccccc1)n1c(=O)oc2c(Br)cccc21 [Example 19, 7-Bromo-2-oxo-N-(4-phenylbutyl)-1,3-benzoxazole-3-carboxamide] | 18 ± 11
O=C(NCCCCc1ccccc1)n1c(=O)oc2cc(Cl)c(Cl)cc21 [Example 16, 5,6-Dichloro-2-oxo-N-(4-phenylbutyl)-1,3-benzoxazole-3-carboxamide] | 18 ± 8
O=C(NCCCCc1ccccc1)n1c(=O)oc2ccc(Br)cc21 [Example 6, 5-Bromo-2-oxo-N-(4-phenylbutyl)-1,3-benzoxazole-3-carboxamide] | 22 ± 11
O=C(NCCCCc1ccccc1)n1c(=O)oc2cc(Cl)ccc21 [Example 5, 6-Chloro-2-oxo-N-(4-phenylbutyl)-1,3-benzoxazole-3-carboxamide] | 33 ± 4
O=C(NCCCCc1ccccc1)n1c(=O)oc2ccc(-c3ccc(F)cc3)cc21 [Example 22, 5-(4-Fluorophenyl)-2-oxo-N-(4-phenylbutyl)-1,3-benzoxazole-3-carboxamide] | 56 ± 14
N#Cc1ccc2oc(=O)n(C(=O)NCCCCc3ccccc3)c2c1 [Example 15, 5-Cyano-2-oxo-N-(4-phenylbutyl)-1,3-benzoxazole-3-carboxamide] | 11
COc1ccc(-c2ccc3oc(=O)n(C(=O)NCCCCc4ccccc4)c3c2)cc1 [Example 21, 5-(4-Methoxyphenyl)-2-oxo-N-(4-phenylbutyl)-1,3-benzoxazole-3-carboxamide] | 68
O=C(NCCCCc1ccccc1)n1c(=O)oc2ccc(Cl)cc21 [Example 4, 5-Chloro-2-oxo-N-(4-phenylbutyl)-1,3-benzoxazole-3-carboxamide] | 9 ± 7
O=C(NCCCCc1ccccc1)n1c(=O)oc2cc(C(F)(F)F)ccc21 [Example 14, 2-Oxo-N-(4-phenylbutyl)-6-(trifluoromethyl)-1,3-benzoxazole-3-carboxamide] | 20 ± 9
COc1ccc2c(c1)oc(=O)n2C(=O)NCCCCc1ccccc1 [Example 10, 6-Methoxy-2-oxo-N-(4-phenylbutyl)-1,3-benzoxazole-3-carboxamide] | 52 ± 9
